Results as given in PubChem BioAssay AID977605 (Broad Institute, 2014).
Calls of active or inactive are those of the source.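 How the source made its calls: active means fitted curve reaches 40% activation below the top valid tested dose, in every test run; inconclusive means test runs disagree on the call; inactive means the rest, including effects opposite to the expected direction.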

Test: endothelial E-selectin upregulation by compounds – imaging, HUVEC, cherry-picked samples, dose response (AID 977605);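 further: signal is the share of imaged cells scored positive for E-selectin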
Conditions: HUVEC E-selectin immunostaining, percent of TNF-alpha response over vehicle

Row | Structure (SMILES) | activation (at 19.5 µM (top of the series)) | also measured
1 | COc1ccc(S(=O)(=O)N(C)C[C@H]2Oc3ccc(NS(=O)(=O)c4c(C)noc4C)cc3C(=O)N([C@@H](C)CO)C[C@H]2C)cc1 | 0.307% (inactive) | –
2 | Cc1ccc(S(=O)(=O)N(C)C[C@H]2Oc3ccc(NC(=O)CCCN(C)C)cc3C(=O)N([C@H](C)CO)C[C@H]2C)cc1 | -0.247% (inactive) | –
3 | CCOc1ccc(NC(=O)CNC(=O)c2ccc(OC)cc2)cc1 | 0.033% (inactive) | –
4 | C[C@@H]1CN([C@@H](C)CO)C(=O)c2cc(C3=CCCCC3)cnc2O[C@H]1CN(C)C(=O)NC1CCCC1 | -0.267% (inactive) | –
5 | Cc1cc(NC(=O)c2ccccc2F)n(C(C)(C)C)n1 | 0.21% (inactive) | –
6 | Cc1noc(C)c1S(=O)(=O)Nc1ccc2c(c1)CC(=O)N([C@H](C)CO)C[C@H](C)[C@@H](CN(C)Cc1ccc(-c3ccccc3)cc1)O2 | – | activation (at 21 µM (top of the series)): -0.276% (inactive)
7 | N#Cc1cccnc1N1CCC(C(N)=O)CC1 | 0.067% (inactive) | –
8 | CCn1c(CNc2ccc(Cl)cc2)nnc1SCC#N | -0.124% (inactive) | –
9 | O=C(CN(C(=O)c1csnn1)c1ccc2c(c1)OCCO2)NCc1ccc(F)cc1 | -0.09% (inactive) | –
10 | O=C(c1cncc(Br)c1)N1CCN(S(=O)(=O)c2ccccc2C(F)(F)F)CC1 | -0.01% (inactive) | –
11 | C[C@@H]1CN([C@H](C)CO)S(=O)(=O)c2ccc(-c3ccc(F)cc3)cc2O[C@@H]1CN(C)CC1CC1 | 0.158% (inactive) | –
12 | CCOC(=O)[C@]12CCCC=C1N(Cc1ccccc1)C(=O)[C@H](CC(=O)NCc1cccc3ccccc13)C2 | 0.13% (inactive) | –
13 | CCOC(=O)C1(Cc2cccc(OC)c2)CCN(Cc2ccccc2)CC1 | 0.067% (inactive) | –
14 | C[C@@H]1CN([C@H](C)CO)C(=O)c2cc(NC(=O)Nc3ccc4c(c3)OCO4)ccc2O[C@H]1CN(C)S(=O)(=O)c1ccccc1 | – | activation (at 21 µM (top of the series)): -0.095% (inactive)
15 | C[C@@H]1CN([C@@H](C)CO)C(=O)c2cc(NC(=O)Cn3cnnn3)ccc2O[C@H]1CN(C)Cc1ccc(Oc2ccccc2)cc1 | 6.68% (inactive) | –
16 | COc1ccc(NC(=O)CCCn2c(=S)[nH]c3ccccc3c2=O)cc1 | 1.61% (inactive) | –
17 | C[C@H]1CN([C@@H](C)CO)C(=O)Cc2cc(NC(=O)Nc3ccc(C(F)(F)F)cc3)ccc2O[C@H]1CN(C)C(=O)Nc1cccc2ccccc12 | – | activation (at 21 µM (top of the series)): 0.822% (inactive)
18 | C[C@@H]1CN([C@H](C)CO)C(=O)Cc2cc(NC(=O)Nc3ccccc3)ccc2O[C@@H]1CN(C)C | 4.89% (inactive) | –
19 | C[C@H](CO)N1C[C@H](C)[C@H](CN(C)S(=O)(=O)c2ccccc2)Oc2c(NC(=O)C3CCOCC3)cccc2C1=O | – | activation (at 21 µM (top of the series)): 3.15% (inactive)
20 | CN(C1CCCCC1)S(=O)(=O)c1cn(C)c(=O)n(C)c1=O | -0.175% (inactive) | –
21 | C[C@@H]1CN([C@H](C)CO)C(=O)c2cc(NS(=O)(=O)c3ccccc3)ccc2O[C@@H]1CN(C)C(=O)NC1CCCCC1 | -0.139% (inactive) | –
22 | CN(CC(=O)Nc1ccc(Br)cc1)Cc1ccccc1 | 0.013% (inactive) | –
23 | COc1ccc(CCNS(=O)(=O)c2ccc3c(c2)NC(=O)CS3)cc1OC | -0.024% (inactive) | –
24 | C[C@@H]1CN([C@H](C)CO)C(=O)c2cc(N(C)C)ccc2O[C@H]1CN(C)Cc1ccc(C(=O)O)cc1 | -0.039% (inactive) | –

Row | Structure (SMILES) | activation (at 19.5 µM (top of the series)) | also measured
25 | COc1ccc(Nc2n[nH]c(N)c2C(N)=O)cc1 | -0.163% (inactive) | –
26 | O=S(=O)(NCc1csc(-c2cccs2)n1)c1ccc(Cl)cc1 | 0.045% (inactive) | –
27 | Cc1[nH]c(=O)c(C#N)cc1-c1ccncc1 | -0.055% (inactive) | –
28 | CCCCc1c(C)nc2ccc(C)cc2c1SCCC(=O)O | -0.168% (inactive) | –
29 | C[C@H](CO)N1C[C@H](C)[C@H](CN(C)CC2CCCCC2)Oc2ccc(NC(=O)Nc3ccc4c(c3)OCO4)cc2C1=O | -0.185% (inactive) | –
30 | CC(C)NC(=O)Nc1ccc2c(c1)C(=O)N([C@@H](C)CO)C[C@@H](C)[C@@H](CN(C)Cc1ccc(C(F)(F)F)cc1)O2 | 0.127% (inactive) | –
31 | c1ccc(Nc2nnc(-c3cccnc3)s2)cc1 | 0.863% (inactive) | –
32 | O=S(=O)(Nc1cccc(Oc2cnccn2)c1)c1ccc(F)cc1 | 0.221% (inactive) | –
33 | O=C(CCC(=O)N1CCOCC1)Nc1ccc(Cl)c(Cl)c1 | 0.295% (inactive) | –
34 | C[C@@H]1CN([C@@H](C)CO)C(=O)Cc2cc(NC(=O)c3ccncc3)ccc2O[C@@H]1CN(C)S(C)(=O)=O | 4.61% (inactive) | –
35 | C[C@H]1CN([C@@H](C)CO)C(=O)c2cccc(NS(=O)(=O)c3cccs3)c2O[C@@H]1CN(C)Cc1ccc(C(=O)Nc2ccccc2N)cc1 | – | activation (at 21 µM (top of the series)): -0.225% (inactive)
36 | C[C@@H]1CCCCO[C@@H](CN(C)S(C)(=O)=O)[C@@H](C)CN([C@H](C)CO)C(=O)c2cc(NC(=O)CCCN(C)C)ccc2O1 | -0.145% (inactive) | –
37 | C[C@@H]1CN([C@H](C)CO)C(=O)Cc2cc(NS(=O)(=O)c3ccc(F)cc3)ccc2O[C@@H]1CN(C)S(=O)(=O)c1ccc(Cl)cc1 | 1.34% (inactive) | –
38 | CCn1c(SCC(=O)N(C)Cc2ccc(OC)c(F)c2)nc2cc(S(N)(=O)=O)ccc21 | -0.113% (inactive) | –
39 | C[C@@H]1CN([C@@H](C)CO)C(=O)c2cc(NC(=O)Nc3ccc(F)cc3)ccc2O[C@@H]1CN(C)S(=O)(=O)c1cccs1 | -0.142% (inactive) | –
40 | Cc1ccc(NCC(=O)N2CCN(S(=O)(=O)c3ccccc3)CC2)cc1F | 0.075% (inactive) | –
41 | Cc1noc(C)c1NC(=O)Nc1ccc2c(c1)CC(=O)N([C@H](C)CO)C[C@H](C)[C@H](CN(C)S(=O)(=O)c1ccccc1)O2 | – | activation (at 21 µM (top of the series)): -0.132% (inactive)
42 | C[C@H]1CN([C@@H](C)CO)C(=O)c2cc(NC(=O)CCN3CCOCC3)ccc2O[C@@H]1CN(C)Cc1ccncc1 | 0.277% (inactive) | –
43 | C[C@@H]1CN([C@H](C)CO)C(=O)c2cccc(NC(=O)Nc3ccc4c(c3)OCO4)c2O[C@@H]1CN(C)C(=O)Nc1ccc(C(F)(F)F)cc1 | 0.256% (inactive) | –
44 | C[C@@H]1CN([C@H](C)CO)C(=O)c2cccc(NC(=O)CCCCCC(=O)Nc3ccccc3N)c2O[C@H]1CN(C)Cc1ccc2c(c1)OCO2 | – | activation (at 18 µM (top of the series)): 0.253% (inactive)
45 | C[C@@H]1CN([C@@H](C)CO)C(=O)c2cccc(NC(=O)Nc3ccc(F)cc3)c2O[C@H]1CN(C)CC1CCCCC1 | -0.153% (inactive) | –
46 | C[C@H](CO)N1C[C@H](C)[C@@H](CN(C)C(=O)NC2CCCCC2)Oc2ccc(NS(=O)(=O)c3ccccc3)cc2C1=O | -0.099% (inactive) | –
47 | COc1ccccc1OCC(=O)Nc1ccc(S(=O)(=O)N2CCN(C)CC2)cc1 | -0.127% (inactive) | –
48 | COCC(=O)N(C)C[C@H]1Oc2cc(-c3ccc(F)cc3)ccc2S(=O)(=O)N([C@@H](C)CO)C[C@H]1C | -0.091% (inactive) | –

Row | Structure (SMILES) | activation (at 19.5 µM (top of the series)) | also measured
49 | CCNC(=O)C[C@@H]1CC[C@@H]2[C@@H](COc3ccc(NC(=O)Nc4cccc(OC)c4)cc3C(=O)N2C)O1 | – | activation (at 21 µM (top of the series)): 0.153% (inactive)
50 | C[C@H](CO)N1C[C@H](C)[C@H](CN(C)Cc2ccc(Cl)c(Cl)c2)Oc2ccc(NC(=O)Nc3ccc4c(c3)OCO4)cc2CC1=O | -0.197% (inactive) | –
51 | COC(=O)c1noc(C)c1-c1ccnn1C(=O)c1ccc(C)cc1 | 0.122% (inactive) | –
52 | COc1ccc(S(=O)(=O)Nc2ccc3c(c2)CC(=O)N([C@H](C)CO)C[C@H](C)[C@@H](CN(C)C(=O)NC2CCCCC2)O3)cc1 | -0.163% (inactive) | –
53 | CC1CC(=O)Nc2ccccc2N1S(=O)(=O)c1cccs1 (configuration not stated) | -0.177% (inactive) | –
54 | C[C@@H]1CN([C@H](C)CO)C(=O)c2cccc(NS(=O)(=O)c3cn(C)cn3)c2O[C@@H]1CN(C)Cc1ccc(Cl)c(Cl)c1 | 0.02% (inactive) | –
55 | CO[C@@H]1CN(C)C(=O)c2cc(NS(C)(=O)=O)ccc2OC[C@@H](C)N(C(=O)c2ccc3c(c2)OCO3)C[C@@H]1C | -0.203% (inactive) | –
56 | COc1ccc(CN(C)C[C@@H]2Oc3ccc(N(C)C)cc3CC(=O)N([C@@H](C)CO)C[C@@H]2C)cc1 | -0.012% (inactive) | –
57 | CCOC(=O)[C@]12CCCC=C1N(CCC1=CCCCC1)C(=O)[C@H](CC(=O)NCCC(C)C)C2 | 7.1% (inactive) | –
58 | C[C@H]1CN([C@@H](C)CO)C(=O)c2cc(NC(=O)Cn3cnnn3)ccc2O[C@@H]1CN(C)Cc1ccc(Oc2ccccc2)cc1 | -0.201% (inactive) | –
59 | CCn1nc(CC(=O)O)c2ccccc2c1=O | 5.69% (inactive) | –
60 | C[C@H]1CN([C@@H](C)CO)C(=O)Cc2cc(NC(=O)Nc3ccc4c(c3)OCO4)ccc2O[C@@H]1CN(C)C | – | activation (at 21 µM (top of the series)): -0.039% (inactive)
61 | O=C(O)Cn1cc(C(=O)C(F)(F)F)c2ccccc21 | 0.43% (inactive) | –
62 | O=C(NC1CCCC1)c1cc(-c2ccccc2O)on1 | 0.323% (inactive) | –
63 | COc1ccc(S(=O)(=O)N(C)C[C@H]2Oc3ccc(NC(=O)CCCN(C)C)cc3C(=O)N([C@@H](C)CO)C[C@@H]2C)cc1 | -0.152% (inactive) | –
64 | COc1ccc(S(=O)(=O)N(C)C[C@H]2Oc3ccc(NC(=O)c4ccncc4)cc3C(=O)N([C@H](C)CO)C[C@@H]2C)cc1 | -0.104% (inactive) | –
65 | COc1ccccc1CC(Cc1nc2ccccc2[nH]1)c1nc2ccccc2[nH]1 (configuration not stated) | 0.165% (inactive) | –
66 | O=C(CN(Cc1ccc(F)cc1)C(=O)CNS(=O)(=O)c1ccc(F)cc1)NCc1ccco1 | -0.246% (inactive) | –
67 | C[C@H](CO)N1C[C@H](C)[C@H](CN(C)Cc2ccc(Oc3ccccc3)cc2)Oc2c(NS(C)(=O)=O)cccc2C1=O | 3.2% (inactive) | –
68 | C[C@@H]1CN([C@@H](C)CO)C(=O)Cc2cc(NC(=O)C3CC3)ccc2O[C@@H]1CN(C)Cc1ccc2c(c1)OCO2 | -0.129% (inactive) | –
69 | C[C@@H]1CN([C@H](C)CO)C(=O)c2cccc(NC(=O)C3CC3)c2O[C@H]1CN(C)CC1CC1 | – | activation (at 21 µM (top of the series)): -0.061% (inactive)
70 | COc1ccc(CN(C)C[C@H]2Oc3ccc(NC(=O)c4ccncc4)cc3C(=O)N([C@H](C)CO)C[C@@H]2C)cc1 | 0.118% (inactive) | –
71 | C[C@@H]1CN([C@H](C)CO)C(=O)c2cccc(NC(=O)c3ccncc3)c2O[C@@H]1CN(C)Cc1ccc(C(=O)Nc2ccccc2N)cc1 | – | activation (at 16 µM (top of the series)): 4.83% (inactive)
72 | CCOc1ccc(S(=O)(=O)N2CCC(C(=O)NCc3cccnc3)CC2)cc1 | -0.239% (inactive) | –
